Laboratory results reported in patent US7750031B2, “Caffeic acid derivative and composition containing the same” (Thefaceshop Korea Co., Ltd., priority 2007, dated 2010).

Assay: solubility measurement in purified water and ethanol
Conditions: for density up to which dissolved: 25° C.

solubility (ethanol (25° C.), density 1 mg/mL): dissolved
solubility (ethanol (25° C.), density 10 mg/mL): dissolved
solubility (ethanol (25° C.), density 100 mg/mL): not dissolved
density up to which dissolved (ethanol): ≥ 10 mg/mL
solubility (purified water (25° C.), density 1 mg/mL): not dissolved
solubility (purified water (25° C.), density 10 mg/mL): not dissolved
solubility (purified water (25° C.), density 100 mg/mL): not dissolved
density up to which dissolved (purified water): not dissolved
SMILES: O=C(O)/C=C/c1ccc(O)c(O)c1 [caffeic acid]
